Laboratory results taken from ChEMBL document CHEMBL1155386, “Synthesis and evaluation of 2-pyridylbenzothiazole, 2-pyridylbenzoxazole and 2-pyridylbenzofuran derivatives as 11C-PET imaging agents for beta-amyloid plaques” (Bioorg Med Chem Lett, 2010).
Active and inactive are the calls of the source. The rule behind the calls is not given here.

How the values were obtained:
[1] = biological target: T1, Amyloid-beta precursor protein (Homo sapiens, UniProt P05067); assay: Binding affinity to Abeta (1 to 40) in brain cortex of patient with Alzheimer's disease by autoradiography relative to non-specific unlabelled PIB binding; format: tissue-based; details: tested as the 3H-labelled form
T1 sequence (P05067 whole entry): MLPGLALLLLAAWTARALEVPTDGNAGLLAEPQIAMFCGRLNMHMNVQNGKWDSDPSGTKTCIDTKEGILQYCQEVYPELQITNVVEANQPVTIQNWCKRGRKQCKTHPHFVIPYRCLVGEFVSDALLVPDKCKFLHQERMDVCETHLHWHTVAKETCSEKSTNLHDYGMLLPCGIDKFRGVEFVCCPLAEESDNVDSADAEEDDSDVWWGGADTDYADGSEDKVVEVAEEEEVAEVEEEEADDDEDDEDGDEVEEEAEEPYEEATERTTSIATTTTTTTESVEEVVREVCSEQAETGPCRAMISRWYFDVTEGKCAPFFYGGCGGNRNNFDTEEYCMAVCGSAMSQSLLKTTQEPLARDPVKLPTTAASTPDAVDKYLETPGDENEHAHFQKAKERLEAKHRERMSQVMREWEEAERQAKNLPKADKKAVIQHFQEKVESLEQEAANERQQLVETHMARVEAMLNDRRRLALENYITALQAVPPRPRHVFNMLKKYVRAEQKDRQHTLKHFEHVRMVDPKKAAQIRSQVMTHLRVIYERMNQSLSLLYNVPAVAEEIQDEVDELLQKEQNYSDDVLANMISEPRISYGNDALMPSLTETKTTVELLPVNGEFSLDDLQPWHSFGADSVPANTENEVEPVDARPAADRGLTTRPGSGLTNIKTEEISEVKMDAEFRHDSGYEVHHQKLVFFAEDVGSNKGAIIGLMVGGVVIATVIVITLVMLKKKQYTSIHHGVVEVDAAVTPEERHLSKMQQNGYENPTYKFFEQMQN

[2] = biological target: T1, Amyloid-beta precursor protein; assay: Displacement of [3H]PIB from human amyloid beta (1 to 40) after 30 mins by liquid scintillation counting
[3] = Lipophilicity, log D of the compound; format: physicochemical; details: octanol/water
Mus musculus = assay: Ex vivo binding affinity to amyloid beta (1 to 40) of APP/PS1 transgenic mouse brain at 10.3 nmol/kg, iv after 10 mins by autoradiography; format: functional, organism-based; details: tested as the 3H-labelled form

| Activity [1] | IC50 [2] | logD [3] | Activity (Mus musculus) | SMILES |
| --- | --- | --- | --- | --- |
| inactive |  |  |  | CNc1ccc(-c2nc3ccc(OC)cc3s2)cn1 |
|  | 137 nM | 2.2 |  | CN(C)c1ccc(-c2nc3cc(O)ccc3o2)cn1 |
|  | 33 nM | 2.8 |  | COc1ccc2cc(-c3ccc(C(N)=O)cn3)oc2c1 |
|  | 81 nM | 4.2 |  | COc1ccc2nc(-c3ccc(N(C)C)nc3)sc2c1 |
|  | 74 nM | 1.5 |  | CNc1ccc(-c2nc3cc(O)ccc3s2)cn1 |
|  |  |  | Active | CNc1ccc(-c2nc3ccc(O)cc3s2)cc1 |
|  | 41 nM | 2.2 |  | CN(C)c1ncc(-c2nc3ccc(O)cc3s2)cn1 |
| inactive |  |  |  | CN(C)c1ccc(-c2nc3ccc(O)cc3s2)cn1 |
|  | 19 nM | 2.4 |  | [3H]C([3H])([3H])N(c1ccc(-c2nc3ccc(O)cc3s2)cn1)C([3H])([3H])[3H] |
| inactive |  |  |  | COc1ccc2nc(-c3ccc(N(C)C)nc3)oc2c1 |
|  | 75 nM | 1.8 |  | [3H]C([3H])([3H])N(c1ncc(-c2nc3ccc(O)cc3o2)cn1)C([3H])([3H])[3H] |
|  | 85 nM | 1.9 |  | [3H]C([3H])([3H])N(c1ccc(-c2nc3ccc(O)cc3o2)cn1)C([3H])([3H])[3H] |
|  | 45 nM | 2 |  | CNc1ccc(-c2cc3ccc(O)cc3o2)cn1 |
|  | 58 nM | 1.8 |  | [3H]N(c1ccc(-c2nc3ccc(O)cc3s2)cn1)C([3H])([3H])[3H] |
|  | 204 nM | 3.7 |  | [3H]C([3H])([3H])N(c1ccc(-c2nc3ccc(OC)cc3o2)cn1)C([3H])([3H])[3H] |
|  | 267 nM | 0.9 |  | CNc1ncc(-c2nc3ccc(O)cc3s2)cn1 |
|  | 60 nM | 1.7 |  | COc1ccc2cc(-c3ccc(C(N)=O)nc3)oc2c1 |
|  | 66 nM | 3.8 |  | CNc1ccc(-c2cc3ccc(OC)cc3o2)cn1 |
|  | 182 nM | 1.3 |  | [3H]N(c1ccc(-c2nc3ccc(O)cc3o2)cn1)C([3H])([3H])[3H] |
|  | 85 nM | 0.5 |  | CNc1ccc(-c2nc3ccc(C(N)=O)cc3s2)cn1 |
|  | 58 nM | 3.2 |  | [3H]N(c1ccc(-c2nc3ccc(OC)cc3s2)cn1)C([3H])([3H])[3H] |
| Active |  |  | Active | CNc1ccc(-c2nc3ccc(O)cc3s2)cn1 |
|  | 35 nM | 1.7 |  | CNc1ccc2nc(-c3ccc(C(N)=O)nc3)sc2c1 |
|  |  | 2.7 |  | CNc1ccc(-c2nc3ccc(OC)cc3o2)cn1 |
| Active |  |  | Active | CNc1ccc(-c2nc3ccc(O)cc3o2)cn1 |
